The record followed here is article PMC6433232, “Targeting mitochondria in cancer therapy could provide a basis for the selective anti-cancer activity” (PLoS ONE, 2019).

For orientation: EC50 means the concentration giving half of the maximal effect.

The target of data set [1] is T1, human GSR enzyme (recombinant GSR) (Homo sapiens, UniProt P00390).
T1 construct: made in house; host or cells: E. coli BL21(DE3)
T1 sequence (P00390 44-522): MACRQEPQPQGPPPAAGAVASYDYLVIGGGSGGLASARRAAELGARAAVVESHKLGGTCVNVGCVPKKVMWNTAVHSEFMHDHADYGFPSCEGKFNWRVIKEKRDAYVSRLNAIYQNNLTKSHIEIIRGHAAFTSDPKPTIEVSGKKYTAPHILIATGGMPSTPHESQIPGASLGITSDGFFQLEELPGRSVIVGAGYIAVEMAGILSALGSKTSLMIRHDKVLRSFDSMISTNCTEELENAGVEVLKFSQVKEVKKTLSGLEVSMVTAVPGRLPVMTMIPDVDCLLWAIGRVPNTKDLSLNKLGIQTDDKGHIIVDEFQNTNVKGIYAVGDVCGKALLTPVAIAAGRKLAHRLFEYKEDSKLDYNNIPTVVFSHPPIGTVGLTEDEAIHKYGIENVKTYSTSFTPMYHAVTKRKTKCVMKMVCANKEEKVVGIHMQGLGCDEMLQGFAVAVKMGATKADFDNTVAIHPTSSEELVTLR
The data set can be described thus: Glutathione reductase (GSR) activity assay. Conditions: for remaining activity at 30 µM: 2 h at 25°C, read-out: GSR, enzyme residual activity as compared to DMSO-treated sample; for inhibition at 30 µM: read-out: GSR-inhibiting activity. The format is biochemical. Here is the method: Recombinant GSR (0.5 u/well) in a 96-well plate was incubated in the GSR assay buffer (50 mM potassium phosphate buffer, pH 7.5 supplemented with 1 mM EDTA), 100 μl with and without compound (30 μM) for 2 h at 25°C. At the end of incubation, 100 μl of solution containing NADPH (0.087 mM), oxidized glutathione (GSSG) (0.95 mM) and 1 μl of the reagent that detects ratio of GSSG to reduced glutathione (GSH) (Abcam) were added and the mixture was incubated for an additional 1 h at 25°C. GSR activity was measured by using 490-nm excitation and monitoring fluorescence at 520 nm with a fluorescence plate reader. One unit of GSR activity was defined as the amount of enzyme required to produce 1 μM of GSH in a total reaction volume of 200 μl in 1 minute in the GSR assay buffer containing NADPH (0.087 mM), GSSG (0.95 mM) and 1 μl of GSH/GSSG ratio detection reagent (Abcam).
Next, we evaluated the inhibitory activity of the selected compounds against human GSR enzyme using recombinant GSR and Abcam GSH/GSSG ratio detection reagent (Table 1). Briefly, GSR activity was measured by following oxidized glutathione (GSSG) reduction in the presence of NADPH and expressed as percentage of residual activity with respect to DMSO-treated enzyme. The residual activity of GSR for both the non-toxic and toxic compounds was quite heterogeneous, ranging from 100% (compounds 38) to 3% (compound 32). […] We thus conclude that GSR inhibitory activity alone cannot be used to predict the selective cytotoxicity index.

A further data set concerns the target T2, human GAPDH enzyme (Homo sapiens, UniProt P04406).
T2 construct: endogenous in cells; host or cells: MIA PaCa-2 cells
The data set can be described thus: GAPDH activity assay in MIA PaCa-2 cells. The format is cell-based. Conditions: 2 h; for remaining activity at 30 µM: read-out: GAPDH, enzyme residual activity as compared to DMSO-treated sample; for inhibition of GAPDH: 30 μM. The protocol:
Cells were incubated for 2 h with either compounds (30 μM) or DMSO in a 6-well plate. Next, cells were collected in 200 μl of PBS and disrupted by sonication. Insoluble material was removed by centrifugation. The level of GAPDH activity was determined by GAPDH activity assay kit (BioVision).
As a final step, we evaluated the inhibitory activity of the selected compounds against human GAPDH enzyme in a cell-based assay using MIA PaCa-2 cells (Table 1). Cells were pre-incubated with compounds for 2 h at 37°C followed by cell lysis using sonication and GAPDH activity assay. The ability of compounds to inhibit GAPDH was expressed as percentage of GAPDH residual activity with respect to DMSO-treated cells. […] Similar to the GSR activity assay, only two of the most toxic compounds 31 and 32, were able to inhibit GAPDH by 95 and 97%, respectively.

In data set [2] the test system is pancreatic cancer MIA PaCa-2 cells. The data set can be described thus: cells. The note with it: for EC50 / CC50: Homo sapiens; for EC50: MIA PaCa-2, read-out: EC50, μM MIA PaCa-2; for CC50: MIA PaCa-2, read-out: LC50 MIA PaCa-2. Here is the method: Fig 1 A, Structure of NSC130362. B, Dose response curve of NSC130362 in MIA PaCa-2 cells. Cells were pre-incubated with NSC130362 for 2 h followed by addition of ATO (5 μM) and incubation for an additional 24 h. At the end of the treatment, the ratio of dead cells was determined by a CellTiterGlo reagent.

The subject of another data set is hepatocytes. The data set can be described thus: Hydrogen peroxide cell-based assay (ROS induction), hepatocytes. Further details: species or system Human. The note with it: 30 μM; hydrogen peroxide level relative to DMSO-treated cells (100%). Here is the method:
Cells were incubated for 2 h with either compounds (30 μM) or DMSO in a 96-well plate. After the treatment, 80 μl of cell culture medium was collected and the level of hydrogen peroxide was determined using a Hydrogen Peroxide Cell-Based Assay kit (Cayman).
Cells were incubated with the compounds for 4 h and the level of ROS induction was measured by a hydrogen peroxide cell-based assay kit. Compounds were assayed at a fixed concentration of 30 μM and the measured level of hydrogen peroxide was expressed as percentage in relation to DMSO-treated cells (100%). […] This distinction was more evident for compounds with the highest selective cytotoxicity index. […] We conclude that the selective induction of ROS in cancer cells is required but not sufficient factor for the selective anti-tumor activity.

Data set [3] relates to human primary hepatocytes.
Description: We selected hepatocytes as normal cells because hepatocytes are mediate toxicity to multiple drugs and are used as a standard to assess toxicity of drugs in vitro [28]. […] For comparison with the standard of care, doxorubicin was also included in this analysis.

Where only a bound is given, the exact number is not on record here.

T2 sequence (P04406 whole entry): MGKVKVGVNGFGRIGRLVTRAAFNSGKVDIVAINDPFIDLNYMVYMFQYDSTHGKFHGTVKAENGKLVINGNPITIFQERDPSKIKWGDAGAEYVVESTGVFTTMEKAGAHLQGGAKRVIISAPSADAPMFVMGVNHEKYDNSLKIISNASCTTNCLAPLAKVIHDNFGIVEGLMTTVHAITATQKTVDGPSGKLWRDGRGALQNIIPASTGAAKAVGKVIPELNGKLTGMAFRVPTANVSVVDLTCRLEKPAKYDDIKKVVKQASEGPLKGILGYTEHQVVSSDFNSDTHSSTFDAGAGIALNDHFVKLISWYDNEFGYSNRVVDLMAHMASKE

Take `NC1=C(Cl)C(=O)c2ccccc2C1=O` [compound 1, 2-chloro-3-amino-1,4-NQ]: in data set [1], the remaining activity at 30 µM is 33% and the inhibition at 30 µM is 67%. Also, the remaining activity at 30 µM on human GAPDH enzyme came to 100%. In data set [2], the EC50 amounted to 8.4 µM and the CC50 worked out at 8.4 µM. Besides, in the data set on hepatocytes, the “ROS increase, % Hepatocytes” value amounted to 156%.

In the case of `CCNC1=C(Cl)C(=O)c2ccccc2C1=O` [compound 3], in data set [1], the remaining activity at 30 µM was 59%. Also, the remaining activity at 30 µM at human GAPDH enzyme was found to be 100%. In data set [2], the EC50 turned out to be 59 µM and the CC50 was determined as 59 µM. Also, the “ROS increase, % Hepatocytes” value in the data set with hepatocytes stood at 115%.

As to `CCCCCCCNC1=C(Cl)C(=O)c2ccccc2C1=O` [compound 8], in data set [1], the remaining activity at 30 µM was 93% and the inhibition at 30 µM worked out at 7%. Further, the remaining activity at 30 µM at human GAPDH enzyme worked out at 100%. For the same molecule, in data set [2], the EC50 was greater than 90 µM and the CC50 was greater than 90 µM. Further, the “ROS increase, % Hepatocytes” value in the data set with hepatocytes is 115%.

As to `CC(C)(C)NC1=C(Cl)C(=O)c2ccccc2C1=O` [compound 13], the results for the remaining activity at 30 µM (in data set [1]; on human GAPDH enzyme) were 45% and 100%, respectively. For the same molecule, the EC50 in data set [2] came out at 7.2 µM. Also, in data set [2], the CC50 was 7.2 µM. Also, in the data set with hepatocytes, the “ROS increase, % Hepatocytes” value is 123%.

Regarding `CC1CN1C1=C(Cl)C(=O)c2ccccc2C1=O` (stereo not shown) [compound 16], in data set [1], the remaining activity at 30 µM turned out to be 75%. At human GAPDH enzyme, the remaining activity at 30 µM amounted to 100%. For the same molecule, in data set [2], the EC50 worked out at 6.9 µM and the CC50 was determined as 6.9 µM. The “toxicity against normal cells” value in data set [3] (hepatocytes, in words) was “completely non-toxic against normal cells”.

Take `CCCCOCCCNC1=C(Cl)C(=O)c2ccccc2C1=O` [compound 26]: the remaining activity at 30 µM turned out to be 66% in data set [1] and 94% at human GAPDH enzyme. Besides, the EC50 in data set [2] is 26.6 µM. Also, the CC50 in data set [2] came to 26.6 µM. Besides, the “ROS increase, % Hepatocytes” value in the data set on hepatocytes is given as 191%.

For the molecule `CCCC(=O)NC1=C(Cl)C(=O)c2ccccc2C1=O` [compound 31], the remaining activity at 30 µM in data set [1] was found to be 28%. Besides, on human GAPDH enzyme, the “inhibition of GAPDH” value is reported as “almost completely inhibited GAPDH”, the inhibition at 30 µM stood at 95% and the remaining activity at 30 µM worked out at 5%. In addition, in data set [2], the EC50 is 10.4 µM and the CC50 was 10.4 µM. The “ROS increase, % Hepatocytes” value with hepatocytes is 228%.

In the case of `CCCCC(=O)NC1=C(Cl)C(=O)c2ccccc2C1=O` [compound 32], in data set [1], the remaining activity at 30 µM was 1% and the inhibition at 30 µM was found to be 99%. For the same molecule, on human GAPDH enzyme, the “inhibition of GAPDH” value was “almost completely inhibited GAPDH”, the inhibition at 30 µM amounted to 97% and the remaining activity at 30 µM turned out to be 3%. In data set [2], the EC50 worked out at 10.2 µM and the CC50 was determined as 10.2 µM. Further, in the data set with hepatocytes, the “ROS increase, % Hepatocytes” value is reported as 249%.

For `O=C1C(Cl)=C(NCCc2ccccc2)C(=O)c2ccccc21` [compound 36], in data set [1], the remaining activity at 30 µM worked out at 42%. Moreover, the remaining activity at 30 µM on human GAPDH enzyme was 97%. Besides, in data set [2], the EC50 was 16.2 µM and the CC50 is 16.2 µM. Besides, the “ROS increase, % Hepatocytes” value with hepatocytes turned out to be 178%.

As to `O=C1C(Cl)=C(Nc2nccs2)C(=O)c2ccccc21` [compound 38], the remaining activity at 30 µM in data set [1] stood at 90%; on human GAPDH enzyme, 100%. Also, in data set [2], the EC50 is greater than 90 µM. In the data set on hepatocytes, the “ROS increase, % Hepatocytes” value is listed as 100%.

With `COC1=C(N2CC2)C(=O)c2ccccc2C1=O` [compound 54], the remaining activity at 30 µM is 54% in data set [1] and 73% on human GAPDH enzyme. In addition, the EC50 in data set [2] amounted to 7.5 µM. In data set [2], the CC50 was found to be 7.5 µM.

Consider `CC1=C(N2CC2)C(=O)c2ccccc2C1=O` [compound 55], for which, in data set [1], the remaining activity at 30 µM stood at 83% and the inhibition at 30 µM was found to be 17%. On human GAPDH enzyme, the remaining activity at 30 µM stood at 100%. Moreover, in data set [2], the EC50 worked out at 3.1 µM and the CC50 stood at 3.1 µM. The “increase in anti-cancer activity” value in data set [2] (versus compound 15) is on record as 2 fold. Besides, the “reduction in toxicity to hepatocytes” value in data set [3] (versus compound 15) is “more than 10 fold”.
